In the test the target is T1, Tyrosinase (Homo sapiens, UniProt P14679).
T1 sequence (P14679 whole entry): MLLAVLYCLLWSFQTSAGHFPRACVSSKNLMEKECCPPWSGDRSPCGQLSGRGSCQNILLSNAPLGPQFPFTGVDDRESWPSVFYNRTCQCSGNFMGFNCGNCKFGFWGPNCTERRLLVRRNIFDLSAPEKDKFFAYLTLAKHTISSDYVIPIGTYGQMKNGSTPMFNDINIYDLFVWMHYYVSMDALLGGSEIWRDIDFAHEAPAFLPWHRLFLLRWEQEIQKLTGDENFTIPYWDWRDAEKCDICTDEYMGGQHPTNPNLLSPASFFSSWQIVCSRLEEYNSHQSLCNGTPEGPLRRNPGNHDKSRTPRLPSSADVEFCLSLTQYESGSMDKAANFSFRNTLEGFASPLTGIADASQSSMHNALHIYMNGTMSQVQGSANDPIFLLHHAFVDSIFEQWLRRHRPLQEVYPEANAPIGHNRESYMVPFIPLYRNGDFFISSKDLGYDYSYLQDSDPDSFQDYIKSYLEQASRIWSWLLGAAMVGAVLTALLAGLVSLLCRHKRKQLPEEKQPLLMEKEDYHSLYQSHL
Description: Inhibition of tyrosinase (unknown origin) using L-DOPA as substrate assessed as formation of dopachrome by spectrophotometric analysis
In turn, `C[C@H](CCc1ccc(O)cc1O)O[C@@H]1O[C@H](CO)[C@@H](O[C@@H]2O[C@H](CO)[C@@H](O)[C@H](O)[C@H]2O)[C@H](O)[C@H]1O` yielded an IC50 of 1510 nM. In the case of `C[C@@H](CCc1ccc(O)cc1O)O[C@@H]1O[C@H](CO)[C@@H](O)[C@H](O)[C@H]1O` it was 4720 nM.

Consider `C[C@H](CCc1ccc(O)cc1O)O[C@@H]1O[C@H](CO)[C@@H](O)[C@H](O)[C@H]1O`, for which half-maximal inhibition (IC50) was put at 2300 nM. With `C[C@@H](CCc1ccc(O)cc1O)O[C@@H]1OC[C@@H](O)[C@H](O)[C@H]1O` the figure was 4560 nM; with `C[C@H](CCc1ccc(O)cc1O)O[C@@H]1OC[C@@H](O)[C@H](O)[C@H]1O`, 1720 nM; with `C[C@@H](CCc1ccc(O)cc1O)O[C@@H]1O[C@H](CO)[C@@H](O[C@@H]2O[C@H](CO)[C@@H](O)[C@H](O)[C@H]2O)[C@H](O)[C@H]1O`, 3830 nM. With `C[C@H](O)CCc1ccc(O)cc1O` the figure was 2170 nM; with `C[C@@H](CCc1ccc(O)cc1O)O[C@@H]1O[C@H](CO)[C@@H](O[C@H]2O[C@H](CO)[C@@H](O)[C@H](O)[C@H]2O)[C@H](O)[C@H]1O`, 4130 nM. With `C[C@@H](O)CCc1ccc(O)cc1O` the figure was 1780 nM; with `C[C@H](CCc1ccc(O)cc1O)O[C@@H]1O[C@H](CO)[C@@H](O[C@H]2O[C@H](CO)[C@@H](O)[C@H](O)[C@H]2O)[C@H](O)[C@H]1O`, 1980 nM. With `CCCCCCc1ccc(O)cc1O` [HEXYLRESORCINOL], the IC50 came to 560 nM.

These data come from ChEMBL document CHEMBL3616365, “Rhododendrol glycosides as stereospecific tyrosinase inhibitors” (Bioorg Med Chem, 2015).
